Consider 48 compounds from the Biogen ADME set (Fang et al. 2023).

Converted amounts (≈) assume the structure as drawn.

The conditions of the series: for aqueous solubility: pH 6.8.

With `CC(=O)N1CCN(c2c(Cl)cccc2NC(=O)COc2ccc(C(C)C)cc2)CC1`, the MDR1-MDCK efflux ratio amounted to 2.13; the intrinsic clearance, human liver microsomes came to 134 mL/min/kg; the intrinsic clearance, rat liver microsomes stood at 1990 mL/min/kg; the aqueous solubility is 2.7 µg/mL (≈ 6.28 µM).

Take `CN1CCC(NC(=O)COc2ccc(C#N)cc2)CC1`: the MDR1-MDCK efflux ratio is 2.44; the intrinsic clearance, human liver microsomes is no more than 4.74 mL/min/kg; the intrinsic clearance, rat liver microsomes is no more than 10.7 mL/min/kg; the aqueous solubility was 35.2 µg/mL (≈ 129 µM).

`CC1(C(=O)O)CCN(Cc2ccccc2)CC1` yielded an intrinsic clearance, human liver microsomes of no more than 4.74 mL/min/kg; an intrinsic clearance, rat liver microsomes of no more than 10.7 mL/min/kg; an aqueous solubility of 44.9 µg/mL (≈ 193 µM).

Regarding `c1ccn2cc(CSc3ccc(-n4cccn4)nn3)nc2c1`, the MDR1-MDCK efflux ratio is 0.732; the intrinsic clearance, human liver microsomes amounted to 18.6 mL/min/kg; the intrinsic clearance, rat liver microsomes came out at 630 mL/min/kg.

In turn, `CCc1cc2c(N3CCN(Cc4nccn4C)CC3)ncnc2s1` yielded an aqueous solubility of 66.8 µg/mL (≈ 195 µM).

Consider `Cc1nc(N(C)C)cc(C2(C)CCNCC2)n1`, for which the MDR1-MDCK efflux ratio came out at 17.7; the intrinsic clearance, human liver microsomes is no more than 4.74 mL/min/kg; the intrinsic clearance, rat liver microsomes amounted to 18.4 mL/min/kg; the aqueous solubility came out at 45 µg/mL (≈ 192 µM).

For `O=C(CN1CCC(n2c(=O)[nH]c3ccccc32)CC1)N1CCc2ccccc21`, the MDR1-MDCK efflux ratio is 51; the intrinsic clearance, human liver microsomes stood at 10.4 mL/min/kg; the intrinsic clearance, rat liver microsomes is 393 mL/min/kg; the aqueous solubility was 21.9 µg/mL (≈ 58 µM).

Turning to `c1ccc(-c2nc(CSc3ccc(-n4cccn4)nn3)cs2)cc1`, the MDR1-MDCK efflux ratio turned out to be 0.541; the intrinsic clearance, human liver microsomes was 75.1 mL/min/kg; the intrinsic clearance, rat liver microsomes was determined as 420 mL/min/kg.

In the case of `O=C(NC[C@H]1CCN(c2ccccc2)C1)N1CCc2sccc2C1`, the MDR1-MDCK efflux ratio was found to be 0.834; the intrinsic clearance, human liver microsomes is 226 mL/min/kg; the intrinsic clearance, rat liver microsomes was found to be 2510 mL/min/kg; the aqueous solubility came out at 16.9 µg/mL (≈ 49.3 µM).

Turning to `CN(CCC#N)Cc1cc(C#N)ccc1F`, the intrinsic clearance, human liver microsomes is no more than 4.74 mL/min/kg; the intrinsic clearance, rat liver microsomes was no more than 10.7 mL/min/kg; the aqueous solubility came to 31.4 µg/mL (≈ 145 µM).

As to `O=c1c2cccnc2ncn1Cc1ccc2c(c1)CCCC2`, the MDR1-MDCK efflux ratio was 0.68; the intrinsic clearance, human liver microsomes was determined as 25.8 mL/min/kg; the intrinsic clearance, rat liver microsomes amounted to 711 mL/min/kg.

Turning to `CC(C)c1csc(NC(=O)C2CCN(c3ncccn3)CC2)n1`, the MDR1-MDCK efflux ratio stood at 0.562; the intrinsic clearance, human liver microsomes amounted to 44.6 mL/min/kg; the intrinsic clearance, rat liver microsomes was 268 mL/min/kg; the aqueous solubility stood at 44.8 µg/mL (≈ 135 µM).

With `O=C1/C(=C2/CCCCCN2)C(Nc2ccccc2)=NN1c1ccccc1`, the MDR1-MDCK efflux ratio came to 0.737 and the aqueous solubility was found to be 0.54 µg/mL (≈ 1.56 µM).

Turning to `CC(C)C[C@@H](C(N)=O)n1ccnc1-c1cccc2ccccc12`, the MDR1-MDCK efflux ratio turned out to be 47.6; the intrinsic clearance, human liver microsomes is 329 mL/min/kg; the intrinsic clearance, rat liver microsomes came to 1410 mL/min/kg; the aqueous solubility is 32.6 µg/mL (≈ 106 µM).

Consider `O=C(Nn1cnc2ccccc21)c1cc(Cl)ccc1F`, for which the MDR1-MDCK efflux ratio worked out at 0.985; the intrinsic clearance, human liver microsomes is no more than 4.74 mL/min/kg; the intrinsic clearance, rat liver microsomes was no more than 10.7 mL/min/kg; the aqueous solubility was 40.2 µg/mL (≈ 139 µM).

`CN(C)C(=O)Cn1cc(C(=O)O)ccc1=O` showed an intrinsic clearance, human liver microsomes of no more than 4.74 mL/min/kg; an intrinsic clearance, rat liver microsomes of no more than 10.7 mL/min/kg; an aqueous solubility of 21.1 µg/mL (≈ 93.9 µM).

As for `O=c1c2ccccc2nc2n1CCN(Cc1ccc(F)cc1)CC2`, the MDR1-MDCK efflux ratio turned out to be 0.471; the intrinsic clearance, human liver microsomes turned out to be 37.1 mL/min/kg; the intrinsic clearance, rat liver microsomes was 565 mL/min/kg.

For `O=C(Cc1ccc(Cl)c(Cl)c1)N1CC(n2ccnn2)C1`, the MDR1-MDCK efflux ratio was found to be 2.09; the intrinsic clearance, human liver microsomes was no more than 4.74 mL/min/kg; the intrinsic clearance, rat liver microsomes came to 51.8 mL/min/kg; the aqueous solubility is 31 µg/mL (≈ 99.7 µM).

With `COc1ccc(C)cc1-n1ccc(C(=O)Nc2c3c(nn2C)CCC3)n1`, the MDR1-MDCK efflux ratio was 1.45; the intrinsic clearance, human liver microsomes turned out to be 46.5 mL/min/kg; the intrinsic clearance, rat liver microsomes came out at 255 mL/min/kg; the aqueous solubility amounted to 33.2 µg/mL (≈ 94.5 µM).

On to `c1ccc(CCn2cnc3c2CCN(c2ncccn2)C3)cc1`, for which the MDR1-MDCK efflux ratio was 0.802; the intrinsic clearance, human liver microsomes turned out to be 206 mL/min/kg; the intrinsic clearance, rat liver microsomes came to 2510 mL/min/kg; the aqueous solubility is 41 µg/mL (≈ 134 µM).

As to `Cc1cc2nc(CCC(=O)N3CCc4n[nH]cc4C3)[nH]c2cc1C`, the MDR1-MDCK efflux ratio turned out to be 24; the intrinsic clearance, human liver microsomes is 17.4 mL/min/kg; the intrinsic clearance, rat liver microsomes is 190 mL/min/kg.

With `CCNc1ccnc(N(C)Cc2nc3ccccc3n2C)n1`, the MDR1-MDCK efflux ratio turned out to be 1.28; the intrinsic clearance, human liver microsomes is 29.5 mL/min/kg; the intrinsic clearance, rat liver microsomes turned out to be 434 mL/min/kg; the aqueous solubility amounted to 37 µg/mL (≈ 125 µM).

For the compound `CN1CCC(O)(CNS(=O)(=O)CC2CCCCC2)CC1`, the MDR1-MDCK efflux ratio amounted to 2.92; the intrinsic clearance, human liver microsomes was no more than 4.74 mL/min/kg; the intrinsic clearance, rat liver microsomes came out at 387 mL/min/kg.

`Clc1cnc(Oc2ccc3cn[nH]c3c2)nc1` returned an intrinsic clearance, human liver microsomes of 12.9 mL/min/kg and an intrinsic clearance, rat liver microsomes of 27.5 mL/min/kg.

As to `Cc1ccccc1OC1CCN(C(=O)Nc2ccc3c(c2)ncn3C)CC1`, the MDR1-MDCK efflux ratio worked out at 8.7; the intrinsic clearance, human liver microsomes came out at 11.4 mL/min/kg; the intrinsic clearance, rat liver microsomes stood at 54.5 mL/min/kg; the aqueous solubility was determined as 26.7 µg/mL (≈ 73.4 µM).

Regarding `CCN(CC)C(=O)c1ccc(C2=CC3(CCNCC3)Oc3cccc(O)c32)cc1`, the MDR1-MDCK efflux ratio is 20.9; the intrinsic clearance, human liver microsomes stood at 9 mL/min/kg; the intrinsic clearance, rat liver microsomes is 65.8 mL/min/kg.

Consider `Nc1nc2c3ccccc3oc2c2ccccc12`, for which the MDR1-MDCK efflux ratio came out at 0.236 and the aqueous solubility was found to be 0.25 µg/mL (≈ 1.07 µM).

On to `CCCc1cnc(C)nc1N(C)CCC(C)(C)O`, for which the intrinsic clearance, human liver microsomes amounted to 8.14 mL/min/kg and the intrinsic clearance, rat liver microsomes was found to be 155 mL/min/kg.

Consider `COc1cccc(/C=C2/N=C(c3ccccc3C)NC2=O)c1OC`, for which the aqueous solubility stood at 0.35 µg/mL (≈ 1.09 µM).

In the case of `CCCCc1c(C)[nH]c2nc(N(Cc3cccs3)C(C)=O)nn2c1=O`, the MDR1-MDCK efflux ratio worked out at 26; the intrinsic clearance, human liver microsomes is 13.7 mL/min/kg; the intrinsic clearance, rat liver microsomes came to 81 mL/min/kg; the aqueous solubility worked out at 39 µg/mL (≈ 108 µM).

Turning to `COc1ccc(CCC(=O)N2CCCNCC2)cc1`, the MDR1-MDCK efflux ratio was 2.76; the intrinsic clearance, human liver microsomes is no more than 4.74 mL/min/kg; the intrinsic clearance, rat liver microsomes was no more than 10.7 mL/min/kg; the aqueous solubility is 35.7 µg/mL (≈ 136 µM).

With `CCCCC1=NC2(CCCC2)C(=O)N1Cc1ccc(-c2ccccc2-c2nnn[nH]2)cc1`, the MDR1-MDCK efflux ratio was found to be 75.6; the intrinsic clearance, human liver microsomes worked out at 9.16 mL/min/kg; the intrinsic clearance, rat liver microsomes was found to be 108 mL/min/kg; the aqueous solubility was found to be 29.5 µg/mL (≈ 68.7 µM).

Turning to `Cc1nc2ccc(NC(=O)c3sc(-c4ccccn4)nc3C)cc2s1`, the MDR1-MDCK efflux ratio was determined as 0.685; the intrinsic clearance, human liver microsomes worked out at 10.2 mL/min/kg; the intrinsic clearance, rat liver microsomes was 38.5 mL/min/kg; the aqueous solubility is 1.3 µg/mL (≈ 3.55 µM).

For the compound `CNC(=O)C1(Cc2ccc(-c3cccnc3)cc2)CCN(Cc2ccccc2Cl)C1` (stereo unspecified), the MDR1-MDCK efflux ratio was determined as 0.961; the fraction unbound, human plasma amounted to 0.0244; the fraction unbound, rat plasma was 0.0188; the intrinsic clearance, human liver microsomes is 446 mL/min/kg. The compound also gave an intrinsic clearance, rat liver microsomes of 559 mL/min/kg.

For the compound `Cc1cc(NC(=O)CN(C)c2c(F)cccc2F)on1`, the aqueous solubility worked out at 69.4 µg/mL (≈ 247 µM).

For `Cc1cc(C)c(-c2csc(CC(N)=O)n2)cc1C`, the MDR1-MDCK efflux ratio came out at 0.831.

Regarding `CCc1c2c(nc3ccc(O)cc13)-c1cc3c(c(=O)n1C2)COC(=O)[C@]3(O)CC`, the MDR1-MDCK efflux ratio stood at 50.8; the intrinsic clearance, human liver microsomes is 18.3 mL/min/kg; the intrinsic clearance, rat liver microsomes was no more than 10.7 mL/min/kg.

Take `CSc1ncccc1C(=O)Nc1ccc(N2CCCCC2=O)cc1`: the MDR1-MDCK efflux ratio is 8.14; the intrinsic clearance, human liver microsomes was no more than 4.74 mL/min/kg; the intrinsic clearance, rat liver microsomes came to 17.8 mL/min/kg; the aqueous solubility was 8.97 µg/mL (≈ 26.3 µM).

As for `COc1ccc2c(c1)CN(c1nc(C)cc(C)n1)CC2`, the intrinsic clearance, human liver microsomes amounted to 129 mL/min/kg; the intrinsic clearance, rat liver microsomes was determined as 484 mL/min/kg; the aqueous solubility was 10.1 µg/mL (≈ 37.5 µM).

On to `CN(CC1(CO)CCC1)C(=O)CCN1CCCCC1=O`, for which the MDR1-MDCK efflux ratio came to 23.2; the intrinsic clearance, human liver microsomes is no more than 4.74 mL/min/kg; the intrinsic clearance, rat liver microsomes is 46 mL/min/kg.

For the compound `O=c1c(-n2ccnn2)c[nH]n1-c1cc(N2CCOCC2)ncn1`, the MDR1-MDCK efflux ratio is 1.76; the intrinsic clearance, human liver microsomes is no more than 4.74 mL/min/kg; the intrinsic clearance, rat liver microsomes was 45.8 mL/min/kg; the aqueous solubility is 30.7 µg/mL (≈ 97.7 µM).

Consider `c1ccc(-c2ccc(CN3CCCCCCC3)cc2)cc1`, for which the MDR1-MDCK efflux ratio was determined as 0.675; the fraction unbound, human plasma was determined as 0.00243; the intrinsic clearance, human liver microsomes is 39.5 mL/min/kg; the intrinsic clearance, rat liver microsomes was 1530 mL/min/kg. This compound registered an aqueous solubility of 9.5 µg/mL (≈ 34 µM).

With `Fc1ccc(-n2cc(/C=C/c3ccnnc3)nn2)cc1Cl`, the MDR1-MDCK efflux ratio turned out to be 0.642 and the aqueous solubility amounted to 0.27 µg/mL (≈ 0.895 µM).

For the compound `CCOC(=O)Cc1c(C)[nH]c2c(-c3ccccc3)cnn2c1=O`, the MDR1-MDCK efflux ratio is 18; the intrinsic clearance, human liver microsomes came to 6.21 mL/min/kg; the intrinsic clearance, rat liver microsomes turned out to be 89.6 mL/min/kg; the aqueous solubility was found to be 14.9 µg/mL (≈ 47.9 µM).

In the case of `Cc1cc(NC(=O)CCc2cnn(C)c2)c2ccccc2n1`, the MDR1-MDCK efflux ratio worked out at 7.68; the intrinsic clearance, human liver microsomes is no more than 4.74 mL/min/kg; the intrinsic clearance, rat liver microsomes amounted to 25 mL/min/kg; the aqueous solubility worked out at 43.2 µg/mL (≈ 147 µM).

As to `COc1cccc(-c2cccc(N)n2)c1F`, the MDR1-MDCK efflux ratio turned out to be 0.764; the intrinsic clearance, human liver microsomes is 84.1 mL/min/kg; the intrinsic clearance, rat liver microsomes was found to be 258 mL/min/kg; the aqueous solubility stood at 18.2 µg/mL (≈ 83.4 µM).

For the compound `CCCNC(=O)Nc1ccc(Oc2ncnc3cc(OC)c(OC)cc23)cc1Cl`, the MDR1-MDCK efflux ratio came out at 6.08 and the aqueous solubility worked out at 0.22 µg/mL (≈ 0.528 µM).

`O=C(CSCCc1ccccn1)Nc1ccccc1`: the MDR1-MDCK efflux ratio came to 0.518; the intrinsic clearance, human liver microsomes amounted to 42.1 mL/min/kg; the intrinsic clearance, rat liver microsomes is 2670 mL/min/kg.
